Measured values taken from US8227480B2, “Indazole derivative having spiro ring structure in side chain” (Ube Industries, Ltd., priority 2006, dated 2012).
pKi: −log10 of the molar value. Counter-ions that a name gives are not always drawn.

What was measured:
[1] = target: T1, activated ROCK-II (Rattus norvegicus, UniProt Q62868); assay: Test for Evaluation of Rho Kinase Inhibitory Activity; type: biochemical; details: Ki=IC50/(1+S/Km); [γ-32P]ATP, S6 kinase substrate peptide, 30° C. for 15 minutes
T1 construct: purchased Upstate Biotechnology 14-338
T1 sequence (Q62868 11-552 limits assumed): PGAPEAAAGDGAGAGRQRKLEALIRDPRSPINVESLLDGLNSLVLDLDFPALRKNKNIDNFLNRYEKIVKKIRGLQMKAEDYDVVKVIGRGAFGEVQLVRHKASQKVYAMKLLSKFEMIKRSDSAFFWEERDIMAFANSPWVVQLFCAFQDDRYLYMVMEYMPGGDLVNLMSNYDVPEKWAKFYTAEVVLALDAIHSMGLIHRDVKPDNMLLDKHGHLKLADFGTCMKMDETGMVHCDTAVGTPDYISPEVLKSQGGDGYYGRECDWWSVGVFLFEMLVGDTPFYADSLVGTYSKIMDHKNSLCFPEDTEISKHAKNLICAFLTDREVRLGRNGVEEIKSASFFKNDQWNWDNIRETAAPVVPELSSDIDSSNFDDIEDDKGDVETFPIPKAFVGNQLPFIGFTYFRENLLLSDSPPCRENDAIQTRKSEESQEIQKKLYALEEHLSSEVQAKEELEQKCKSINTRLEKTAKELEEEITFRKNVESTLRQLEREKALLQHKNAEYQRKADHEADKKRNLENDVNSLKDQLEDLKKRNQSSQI
Procedure: In order to find the usefulness of the present invention compound, a Rho kinase inhibitory activity of the present invention compound was evaluated and studied. The details of the evaluation and study will be illustrated in the “section of Pharmacological Test (Test for Evaluation of Rho Kinase Inhibitory Activity)” in the Examples which will be mentioned later. The evaluation and study of the Rho kinase inhibitory activity of the present invention compound were carried out in accordance with the method described in J. Biol. Chem., 274, 32418 (1999) and the method described in the instruction manual for use attached to the commercially available activated ROCK-II [Upstate Biotechnology, Catalog No. 14-338 (5 units/50 μl)].
In order to study the usefulness of the present invention compound as a Rho kinase inhibitor, in accordance with the method described in J. Biol. Chem., 274, 32418 (1999) and the method described in the instruction manual for use attached to the commercially available activated ROCK-II [Upstate Biotechnology, Catalog No. 14-338 (5 units/50 μl)], the Rho kinase inhibitory activity of the present invention compound was evaluated and studied. As a test compound, Example compound 2 was used. […]
7) The filter paper is dipped in ethanol and then dried. Thereafter, the amount of phosphorylated substrate is measured using a liquid scintillation counter. […]

[2] = tested on: cynomolgus monkeys; assay: Test for Measurement of Intraocular Pressure-Reducing Activity; type: in vivo; details: male cynomolgus monkeys, 0.1% test compound solution instilled into one eye, measured at 2, 4 and 6 hours after instillation, versus vehicle control
From the text: Further, in order to verify the application of the present invention compound to a specific disease associated with Rho kinase, the intraocular pressure-reducing activity of the present invention compound was also studied. The details of the study will be illustrated in the “section of Pharmacological Test (Test for Measurement of Intraocular Pressure-Reducing Activity)” in the Examples which will be mentioned later.
In order to study the usefulness of the present invention compound as a therapeutic agent for glaucoma, an intraocular pressure-reducing effect in the case where the present invention compound was administered to cynomolgus monkeys (sex: male; one group consisting of 4 to 5 monkeys) was evaluated and studied. As a test compound, Example compound 2 (hereinafter referred to as the test compound) was used. […]
2) The intraocular pressure was measured immediately before administration of the test compound solution, which was defined as the initial intraocular pressure. […]
4) At 2, 4 and 6 hours after instillation of the test compound solution, one drop of a 0.4% oxybuprocaine hydrochloride eye drop was instilled into both eyes to achieve local anesthesia and then the intraocular pressure was measured. Measurement of the intraocular pressure for each time was carried out three times and a mean value thereof was calculated. […]

Compound | melting point | pKi [1] | intraocular pressure-reducing activity (change from the initial intraocular pressure, FIG. 1) [2]
NC1(c2ccc(-c3ccc4[nH]ncc4c3C3CC3)nc2)CC2(CC2)C1 (as salt: hydrochloride) [Example compound 2, 5-{5-(5-amino-spiro[2,3]hex-5-yl)pyridin-2-yl}}-4-cyclopropyl-1H-indazole Dihydrochloride] | > 300 °C (dec.) |  | 
CC(C)(C)OC(=O)NC1(c2ccc(-c3ccc4c(cnn4C4CCCCO4)c3C3CC3)nc2)CC2(CC2)C1 (stereo not shown) [Example compound 1] | 199 to 202 °C |  | 
NC1(c2ccc(-c3ccc4[nH]ncc4c3C3CC3)nc2)CC2(CC2)C1 [Example compound 2, 5-{5-(5-amino-spiro[2,3]hex-5-yl)pyridin-2-yl}}-4-cyclopropyl-1H-indazole Dihydrochloride] |  | 8.46 | excellent intraocular pressure-reducing activity
